Experimental data from US12616759B2, “Uses of labeled HSP90 inhibitors” (Sloan-Kettering Institute for Cancer Research, priority 2011, dated 2026).

Key:
oncogenic HSP90 [1] = assay: PU-FITC binding to EpCAM+ circulating tumor cells in PBMCs; assay type: cell-based, human; details: CTCs, patient with HER2+ metastatic breast cancer
Experimental: FIGS. 20A and 20B. PU-H71-FITC2 accumulation in EpCAM+ Circulating Tumor Cells: PBMC's isolated from whole blood were pre-treated with PU-FITC or controls (PU-FITC9, DMSO, 1 μM/2×10^6 cells/ml, 4 hrs). Cells were then stained with CD45, CD14 and EpCAM antibodies. FIG. 20A Cells are gated to exclude dead cells. Viable cells are then gated to determine EpCAM+vs CD45+ cells. Monocytes are excluded from the analysis by gating the CD45+ cells further as FSC vs. CD14. FIG. 20B Histogram plots showing the PU-FITC Median florescence intensity (MFI) of CD45+CD14− cells (blue) and EpCAM+ cells (Red). The drug accumulation in EpCAM+ cells is calculated as the ratio of MFI EpCAM+/MFI CD45+CD14− (circulating tumor cells/leukocytes) after subtracting the values of the DMSO and PU-FITC9 controls (used to control for non-specific and background binding).
Measure PU-FITC binding to EpCAM+ circulating tumor cells in PBMC's: All experimental blood sampling procedures were performed under the Institutional Review Board-approved protocols at Memorial Sloan Kettering Cancer Center. […] PBMC's are isolated on ficoll gradients, cells are counted and viability determined by trypan blue dye exclusion assay. PBMC's are spun down and re-suspended to 2×10^6 cells/ml. […] Values are calculated as a ratio of the MFI of Tumor (EpCAM+CD45−CD14−): MFI of EpCAM-CD45+CD14− cells. […]

oncogenic HSP90 [2] = assay: PU-H71-FITC2 binding to pancreatic and breast cancer cell lines relative to HL-60 versus viability
oncogenic HSP90 [3] = assay: PU-H71-FITC2 binding to primary leukemia blasts relative to normal lymphocytes, flow cytometry; assay type: cell-based, human; details: blast crisis CML cells
Experimental: Cell viability was analyzed by flow cytometry (BD Biosciences). […] Cells were washed and then analyzed by flow cytometry. Normal mouse IgG2a-PE was used as isotype control.
Analysis is performed using FlowJo software.

MV4-11 and MOLM-13 cells = assay: fluorescent PU-H71 derivatives in AML cell lines: flow cytometry, viability
in vivo = details: 3×Tg AD, mouse
HSP70 = HSP70 induction in hippocampus of 3×Tg AD mice; assay type: in vivo; details: i.p., 24 h
Experimental: FIGS. 43A, 43B, and 43C. 8-10 mo 3×Tg mice were administered 75 mg/kg (FIG. 43A) or the indicated dose of the HSP90 inhibitor PU-HZ151 (FIG. 43B) and the PD marker, HSP70, was measured in hippocampus, an afflicted brain region in this model of AD, at 24 h post-administration. HSP70 is induced when HSP90 is inhibited and its induction is an indicator that therapeutic levels of the HSP90 inhibitor were delivered to the brain region of interest. FIG. 43C: Levels of the HSP90 inhibitor in the indicated brain regions and plasma were determined by LC-MS/MS after the administration of 50 mg/kg PU-HZ151. Hsp90 inhibitor levels at different times after single ip injection are shown in micromolar units. Brain exposure was also measured as the area under the curve (AUC).
Pharmacodynamic analyses. For protein analysis, selected brain region (hippocampus) was homogenized in SDS lysis buffer (50 mM Tris pH 7.4, 2% SDS) and subjected to Western blot analysis. Levels of proteins were be analyzed by immunoblotting with anti-Hsp70 and Hsp90 antibodies.

Row | Kp (in vivo) | SMILES | fold more bound by tumor cells than leukocytes (CD45+CD14− cells) (oncogenic HSP90 [1]) | binding to HL-60 leukemia cells (oncogenic HSP90 [2]) | binding relative to normal lymphocytes (oncogenic HSP90 [3]) | permeation of live cells and target binding (MV4-11 and MOLM-13 cells; 1 μM) | effect on viability of leukemia cells (MV4-11 and MOLM-13 cells; MOLM-13, 1 μM, 24 h) | lowest administered dose with significant induction of HSP70 (HSP70) [mg/kg]
1 |  | CC(C)N(CCCn1c(Sc2cc3c(cc2I)OCO3)nc2c(N)ncnc21)C(=S)Nc1ccc(-c2c3ccc(=O)cc-3oc3cc(O)ccc23)c(C(=O)O)c1 [PU-H71-FITC2] | around 84 fold | low to no binding | over 4 fold | permeate live cells and bind to the target | reduce the viability of leukemia cells | 
2 | 2.5 | CC(C)(C)CNCCn1c(Sc2cc3c(cc2I)OCO3)nc2c(N)ncnc21 [PU-HZ151] |  |  |  |  |  | 10
